These compounds were tested on Beet Armyworm (Spodoptera exigua, LAPHEG) second instar larva (assay: Bioassay on beet armyworm (BAW), 128-well diet tray assay). Conditions: 50 μg/cm^2 on artificial diet, 25° C., five days.
Type: in vivo
Procedure: Example A: Bioassays on Beet Armyworm (Spodoptera exigua, LAPHEG) (“BAW”) and Cabbage Looper (Trichoplusia ni, TRIPNI) (“CL”)
Bioassays on BAW were conducted using a 128-well diet tray assay. One second instar BAW larva was placed in each well (8 wells total) of the diet tray that had been previously filled with 1 mL of artificial diet to which 50 μg/cm^2 of the test molecule (dissolved in 50 μL of 90:10 acetone-water mixture) had been applied (to each of eight wells) and then allowed to dry. Trays were covered with a clear self-adhesive cover, vented to allow gas exchange, and held at 25° C., 14:10 light-dark for five days. Percent mortality was recorded for the larvae in each well; activity in the eight wells was then averaged.

SMILES | activity against BAW (percent mortality, averaged over eight wells)
O=C(CC(F)(F)F)Nc1cc(NC(=O)[C@H]2[C@H](c3cc(Cl)cc(Cl)c3)C2(Cl)Cl)ccc1Cl (racemic) [F5, trans-rac-2,2-Dichloro-N-(4-chloro-3-(3,3,3-trifluoropropanamido)phenyl)-3-(3,5-dichlorophenyl)cyclopropane-1-carboxamide] | exhibited activity
CC(C(=O)Nc1cc(NC(=O)C2C(c3cc(Cl)cc(Cl)c3)C2(Cl)Cl)ccc1Cl)C(F)(F)F (racemic) [F6, trans-rac-2,2-Dichloro-N-(4-chloro-3-(3,3,3-trifluoro-2-methylpropanamido)phenyl)-3-(3,5-dichlorophenyl)cyclopropane-1-carboxamide] | exhibited activity
CC(CC(F)(F)F)C(=O)Nc1cc(NC(=O)C2C(c3cc(Cl)cc(Cl)c3)C2(Cl)Cl)ccc1Cl (racemic) [F8, trans-rac-2,2-Dichloro-N-(4-chloro-3-(4,4,4-trifluoro-2-methylbutanamido)phenyl)-3-(3,5-dichlorophenyl)cyclopropane-1-carboxamide] | exhibited activity
CC(CC(=O)Nc1cc(NC(=O)C2C(c3cc(Cl)cc(Cl)c3)C2(Cl)Cl)ccc1Cl)C(F)(F)F (racemic) [F9, trans-rac-2,2-Dichloro-N-(4-chloro-3-(4,4,4-trifluoro-3-methylbutanamido)phenyl)-3-(3,5-dichlorophenyl)cyclopropane-1-carboxamide] | exhibited activity
O=C(Nc1cc(NC(=O)[C@H]2[C@H](c3cc(Cl)cc(Cl)c3)C2(Cl)Cl)ccc1Cl)c1ccc(F)cc1F (racemic) [F24, trans-rac-N-(2-Chloro-5-(2,2-dichloro-3-(3,5-dichlorophenyl)cyclopropane-1-carboxamido)phenyl)-2,4-difluorobenzamide] | exhibited activity
O=C(Nc1cc(NC(=O)[C@H]2[C@H](c3cc(Cl)cc(Cl)c3)C2(Cl)Cl)ccc1Cl)c1cc(F)cc(F)c1 (racemic) [F26, trans-rac-N-(2-chloro-5-(2,2-dichloro-3-(3,5-dichlorophenyl)cyclopropane-1-carboxamido)phenyl)-3,5-difluorobenzamide] | exhibited activity
Cc1cc(C#N)ccc1C(=O)Nc1cc(NC(=O)[C@H]2[C@H](c3cc(Cl)cc(Cl)c3)C2(Cl)Cl)ccc1Cl (racemic) [F27, trans-rac-N-(2-Chloro-5-(2,2-dichloro-3-(3,5-dichlorophenyl)cyclopropane-1-carboxamido)phenyl)-4-cyano-2-methylbenzamide] | exhibited activity
O=C(Nc1cc(NC(=O)[C@H]2[C@H](c3cc(Cl)cc(Cl)c3)C2(Cl)Cl)ccc1Cl)c1ccc(F)cn1 (racemic) [F30, trans-rac-N-(2-Chloro-5-(2,2-dichloro-3-(3,5-dichlorophenyl)cyclopropane-1-carboxamido)phenyl)-5-fluoropicolinamide] | exhibited activity
O=C(Nc1cc(NC(=O)[C@H]2[C@H](c3cc(Cl)cc(Cl)c3)C2(Cl)Cl)ccc1Cl)c1ccncn1 (racemic) [F32, trans-rac-N-(2-Chloro-5-(2,2-dichloro-3-(3,5-dichlorophenyl)cyclopropane-1-carboxamido)phenyl)pyrimidine-4-carboxamide] | exhibited activity
O=C(Nc1cc(NC(=O)[C@H]2[C@H](c3cc(Cl)cc(Cl)c3)C2(Cl)Cl)ccc1Cl)c1ccco1 (racemic) [F34, trans-rac-N-(2-Chloro-5-(2,2-dichloro-3-(3,5-dichlorophenyl)cyclopropane-1-carboxamido)phenyl)furan-2-carboxamide] | exhibited activity

From US20240343681A1, “MOLECULES HAVING PESTICIDAL UTILITY AND INTERMEDIATES AND PROCESSES RELATED THERETO” (priority 2021, published 2024)
